# Experiments:
# Experiment in all cases: Test E pre-/postemergence greenhouse test, plant response rating 0-100
# Type in all cases: in vivo
# [1] = system: Brazilian crabgrass (Digitaria horizontalis); details: Digitaria horizontalis, post-emergence, Postemergence, scale 0 to 100, read-out: Plant response rating, Crabgrass, Brazil
# Outline: (§1)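 Seeds sown in silt loam were treated preemergence, and seedlings in peat-based potting medium were treated postemergence at the 1- to 4-leaf stage (2-18 cm tall). Test chemicals were formulated in a non-phytotoxic solvent mixture with surfactant. After 14-21 days in the greenhouse, injury was rated visually against untreated controls (0 = no effect, 100 = complete control).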
# [2] = system: Italian ryegrass (Lolium multiflorum); details: Lolium multiflorum, post-emergence, Postemergence, scale 0 to 100
# Outline: as §1
# [3] = system: barnyardgrass (Echinochloa crus-galli); details: Echinochloa crus-galli, post-emergence, Postemergence, scale 0 to 100
# Outline: as §1
# corn (Zea mays) = details: scale 0 to 100
# Outline: as §1
# [4] = system: dayflower (Virginia (VA) dayflower, Commelina virginica); details: scale 0 to 100
# Outline: as §1
# [5] = system: fall panicum (Panicum dichotomiflorum); details: Panicum dichotomiflorum, post-emergence, Postemergence, scale 0 to 100
# Outline: as §1
# [6] = system: field bindweed (Convolvulus arvensis); details: scale 0 to 100
# Outline: as §1
# [7] = system: hairy beggarticks (Bidens pilosa); details: Preemergence, scale 0 to 100
# Outline: as §1
# [8] = system: sandbur (southern sandbur, Cenchrus echinatus); details: Cenchrus echinatus, post-emergence, Postemergence, scale 0 to 100
# Outline: as §1
# soybean (Glycine max) = details: scale 0 to 100; for Soybean plant response rating: Preemergence
# Outline: as §1
# [9] = system: waterhemp (common waterhemp, Amaranthus rudis); details: scale 0 to 100; for Waterhemp plant response rating: Preemergence
# Outline: as §1
# [10] = system: wild poinsettia (Euphorbia heterophylla); details: scale 0 to 100; for Poinsettia, Wild plant response rating: Preemergence
# Outline: as §1
structure (smiles),measurement,setting,value
"Cn1cc(C(=O)c2ccccc2)c(-c2cc(Cl)cc(Cl)c2)n1 [Compound 54, [3-(3,5-dichlorophenyl)-1-methyl-1H-pyrazol-4-yl]phenylmethanone]",pest or weed control at 16 g/ha,[1]; 16 g ai/ha,0%
same,pest or weed control at 31 g/ha,[1]; 31 g ai/ha,0%
same,pest or weed control at 62 g/ha,[1]; 62 g ai/ha,0%
same,pest or weed control at 125 g/ha,[1]; 125 g ai/ha,0%
same,pest or weed control at 250 g/ha,[1]; 250 g ai/ha,0%
same,pest or weed control at 31 g/ha,[2]; 31 g ai/ha,0%
same,pest or weed control at 62 g/ha,[2]; 62 g ai/ha,0%
same,pest or weed control at 125 g/ha,[2]; 125 g ai/ha,0%
same,pest or weed control at 250 g/ha,[2]; 250 g ai/ha,0%
same,pest or weed control at 16 g/ha,[3]; 16 g ai/ha,0%
same,pest or weed control at 31 g/ha,[3]; 31 g ai/ha,0%
same,pest or weed control at 62 g/ha,[3]; 62 g ai/ha,0%
same,pest or weed control at 125 g/ha,[3]; 125 g ai/ha,0%
same,pest or weed control at 250 g/ha,[3]; 250 g ai/ha,0%
same,Corn plant response rating,"corn (Zea mays); Preemergence, 125 g ai/ha",0
same,Corn plant response rating,"corn (Zea mays); Preemergence, 250 g ai/ha",0
same,"Corn plant response rating (crop injury, 0 = no effect, 100 = complete kill) at 16 g/ha","corn (Zea mays); Zea mays, post-emergence, Postemergence, 16 g ai/ha",0%
same,"Corn plant response rating (crop injury, 0 = no effect, 100 = complete kill) at 31 g/ha","corn (Zea mays); Zea mays, post-emergence, Postemergence, 31 g ai/ha",0%
same,"Corn plant response rating (crop injury, 0 = no effect, 100 = complete kill) at 62 g/ha","corn (Zea mays); Zea mays, post-emergence, Postemergence, 62 g ai/ha",0%
same,"Corn plant response rating (crop injury, 0 = no effect, 100 = complete kill) at 125 g/ha","corn (Zea mays); Zea mays, post-emergence, Postemergence, 125 g ai/ha",0%
same,"Corn plant response rating (crop injury, 0 = no effect, 100 = complete kill) at 250 g/ha","corn (Zea mays); Zea mays, post-emergence, Postemergence, 250 g ai/ha",0%
same,"Corn plant response rating (crop injury, 0 = no effect, 100 = complete kill) at 1000 g/ha","corn (Zea mays); Zea mays, pre-emergence, Preemergence, 1000 g ai/ha",0%
same,pest or weed control at 16 g/ha,"[4]; Commelina virginica, post-emergence, Postemergence, 16 g ai/ha",0%
same,pest or weed control at 31 g/ha,"[4]; Commelina virginica, post-emergence, Postemergence, 31 g ai/ha",0%
same,pest or weed control at 62 g/ha,"[4]; Commelina virginica, post-emergence, Postemergence, 62 g ai/ha",0%
same,pest or weed control at 125 g/ha,"[4]; Commelina virginica, post-emergence, Postemergence, 125 g ai/ha",0%
same,pest or weed control at 250 g/ha,"[4]; Commelina virginica, post-emergence, Postemergence, 250 g ai/ha",0%
same,pest or weed control at 1000 g/ha,"[4]; Commelina virginica, pre-emergence, Preemergence, 1000 g ai/ha",0%
same,"Dayflower, VA plant response rating","[4]; Preemergence, 125 g ai/ha",0
same,"Dayflower, VA plant response rating","[4]; Preemergence, 250 g ai/ha",0
same,pest or weed control at 31 g/ha,[5]; 31 g ai/ha,0%
same,pest or weed control at 62 g/ha,[5]; 62 g ai/ha,0%
same,pest or weed control at 125 g/ha,[5]; 125 g ai/ha,0%
same,pest or weed control at 250 g/ha,[5]; 250 g ai/ha,0%
same,pest or weed control at 16 g/ha,"[6]; Convolvulus arvensis, post-emergence, Postemergence, 16 g ai/ha",0%
same,pest or weed control at 31 g/ha,"[6]; Convolvulus arvensis, post-emergence, Postemergence, 31 g ai/ha",0%
same,pest or weed control at 62 g/ha,"[6]; Convolvulus arvensis, post-emergence, Postemergence, 62 g ai/ha",0%
same,pest or weed control at 125 g/ha,"[6]; Convolvulus arvensis, post-emergence, Postemergence, 125 g ai/ha",0%
same,pest or weed control at 250 g/ha,"[6]; Convolvulus arvensis, post-emergence, Postemergence, 250 g ai/ha",0%
same,pest or weed control at 1000 g/ha,"[6]; Convolvulus arvensis, pre-emergence, Preemergence, 1000 g ai/ha",0%
same,Field Bindweed plant response rating,"[6]; Preemergence, 125 g ai/ha",0
same,Field Bindweed plant response rating,"[6]; Preemergence, 250 g ai/ha",0
same,pest or weed control at 1000 g/ha,"[7]; Bidens pilosa, pre-emergence, 1000 g ai/ha",90%
same,Beggarticks plant response rating,[7]; 125 g ai/ha,0
same,Beggarticks plant response rating,[7]; 250 g ai/ha,23
same,pest or weed control at 31 g/ha,[8]; 31 g ai/ha,0%
same,pest or weed control at 62 g/ha,[8]; 62 g ai/ha,0%
same,pest or weed control at 125 g/ha,[8]; 125 g ai/ha,0%
same,pest or weed control at 250 g/ha,[8]; 250 g ai/ha,0%
same,plant injury at 31 g/ha,"soybean (Glycine max); Glycine max, post-emergence, Postemergence, 31 g ai/ha",0%
same,plant injury at 62 g/ha,"soybean (Glycine max); Glycine max, post-emergence, Postemergence, 62 g ai/ha",0%
same,plant injury at 125 g/ha,"soybean (Glycine max); Glycine max, post-emergence, Postemergence, 125 g ai/ha",0%
same,plant injury at 250 g/ha,"soybean (Glycine max); Glycine max, post-emergence, Postemergence, 250 g ai/ha",0%
same,Soybean plant response rating,soybean (Glycine max); 125 g ai/ha,0
same,Soybean plant response rating,soybean (Glycine max); 250 g ai/ha,12
same,pest or weed control at 62 g/ha,"[9]; Amaranthus tuberculatus, post-emergence, Postemergence, 62 g ai/ha",60%
same,pest or weed control at 125 g/ha,"[9]; Amaranthus tuberculatus, post-emergence, Postemergence, 125 g ai/ha",70%
same,pest or weed control at 250 g/ha,"[9]; Amaranthus tuberculatus, post-emergence, Postemergence, 250 g ai/ha",95%
same,Waterhemp plant response rating,[9]; 125 g ai/ha,96
same,Waterhemp plant response rating,[9]; 250 g ai/ha,99
same,pest or weed control at 31 g/ha,"[10]; Euphorbia heterophylla, post-emergence, Postemergence, 31 g ai/ha, read-out: Plant response rating, Poinsettia, Wild",0%
same,pest or weed control at 62 g/ha,"[10]; Euphorbia heterophylla, post-emergence, Postemergence, 62 g ai/ha, read-out: Plant response rating, Poinsettia, Wild",0%
same,pest or weed control at 125 g/ha,"[10]; Euphorbia heterophylla, post-emergence, Postemergence, 125 g ai/ha, read-out: Plant response rating, Poinsettia, Wild",0%
same,pest or weed control at 250 g/ha,"[10]; Euphorbia heterophylla, post-emergence, Postemergence, 250 g ai/ha, read-out: Plant response rating, Poinsettia, Wild",0%
same,"Poinsettia, Wild plant response rating",[10]; 125 g ai/ha,80
same,"Poinsettia, Wild plant response rating",[10]; 250 g ai/ha,23
